The record followed here is ChEMBL document CHEMBL1153871, “Antiplasmodial and antitrypanosomal activities of aminobicyclo[2.2.2]octyl omega-aminoalkanoates” (Eur J Med Chem, 2009).

Molecules are shown by their SMILES.

One data set concerns L6. The experiment in a line: Cytotoxicity against rat L6 cells. Type of data set: cell-based.
For data set [1], the system named is Trypanosoma brucei rhodesiense. The experiment in a line: Antitrypanosomal activity against Trypanosoma brucei rhodesiense STIB900 by microplate assay. In kind it is functional, organism-based.
Another data set relates to Plasmodium falciparum. Put plainly: Antimalarial activity against chloroquine and pyrimethamine-resistant Plasmodium falciparum K1. Type of data set: functional, organism-based.
Data set [2] is described as follows: Selectivity index, ratio of IC50 for rat L6 cells to IC50 for Trypanosoma brucei rhodesiense STIB900. In kind it is toxicity, cell-based. The following applies: read-out: Ratio IC50.

In the case of `CN(C)C12CC(OC(=O)CCN3CCC(O)CC3)C(C(c3ccccc3)C1)C(c1ccccc1)C2` (racemic), the concentration for half-maximal inhibition (IC50) with L6 (Rattus norvegicus, L6) worked out at 89200 nM; in data set [1] (Trypanosoma brucei, STIB900), 950 nM; with Plasmodium falciparum (Plasmodium falciparum, K1) it was 2250 nM.

For `O=C(CCN1CCCCC1)OC1CC2(N3CCCC3)CC(c3ccccc3)C1C(c1ccccc1)C2` (racemic), the IC50 in the data set on L6 (Rattus norvegicus, L6) was 17800 nM; in data set [1] (Trypanosoma brucei, STIB900), 310 nM; in the data set on Plasmodium falciparum (Plasmodium falciparum, K1), 280 nM.

Turning to `CN(C)C12CC(OC(=O)CCN3CCCCC3)C(C(c3ccccc3)C1)C(c1ccccc1)C2` (racemic), the IC50 in the data set on L6 (Rattus norvegicus, L6) worked out at 25800 nM; in data set [1] (Trypanosoma brucei, STIB900), 210 nM; in the data set with Plasmodium falciparum (Plasmodium falciparum, K1), 400 nM.

Take `O=C(CCN1CCCC1)OC1CC2(N3CCCC3)CC(c3ccccc3)C1C(c1ccccc1)C2` (racemic): the IC50 is 21900 nM in the data set on L6 (Rattus norvegicus, L6); 120 nM in data set [1] (Trypanosoma brucei, STIB900); 370 nM with Plasmodium falciparum (Plasmodium falciparum, K1).

Regarding `CCN(CC)CCC(=O)OC1CC2(N3CCCCC3)CC(c3ccccc3)C1C(c1ccccc1)C2` (racemic), the IC50 in the data set with L6 (Rattus norvegicus, L6) came out at 22900 nM; in data set [1] (Trypanosoma brucei, STIB900) it was 150 nM; with Plasmodium falciparum (Plasmodium falciparum, K1), 190 nM.

As for `CN(C)C12CC(OC(=O)CCN3CCCC3)C(C(c3ccccc3)C1)C(c1ccccc1)C2` (racemic), the IC50 with L6 (Rattus norvegicus, L6) amounted to 26000 nM; in data set [1] (Trypanosoma brucei, STIB900) it was 76 nM; in the data set on Plasmodium falciparum (Plasmodium falciparum, K1), 550 nM. Moreover, the selectivity ratio in data set [2] was 341.

For `O=C(CN1CCC(O)CC1)OC1CC2(N3CCCC3)CC(c3ccccc3)C1C(c1ccccc1)C2` (racemic), the IC50 in the data set with L6 (Rattus norvegicus, L6) was found to be 93400 nM; in data set [1] (Trypanosoma brucei, STIB900) it was 1050 nM; with Plasmodium falciparum (Plasmodium falciparum, K1), 860 nM.

In the case of `Nc1nc(N)nc(Nc2ccc([As]3SCC(CO)S3)cc2)n1` (stereo not given) [MELARSOPROL], in data set [1] (Trypanosoma brucei, STIB900), 5 nM corresponded to half-maximal inhibition (IC50).

For `O=C(CN1CCCCC1)OC1CC2(N3CCCCC3)CC(c3ccccc3)C1C(c1ccccc1)C2` (racemic), the IC50 in the data set on L6 (l6) was above 185000 nM; in data set [1], 5420 nM; in the data set with Plasmodium falciparum, 1410 nM.

Turning to `O=C(CCN1CCCC1)OC1CC2(N3CCCCC3)CC(c3ccccc3)C1C(c1ccccc1)C2` (racemic), the IC50 in the data set on L6 (Rattus norvegicus, L6) was determined as 12500 nM; in data set [1] (Trypanosoma brucei, STIB900) it was 380 nM; in the data set with Plasmodium falciparum (Plasmodium falciparum, K1), 250 nM.

Consider `O=C(CCN1CCC(O)CC1)OC1CC2(N3CCCCC3)CC(c3ccccc3)C1C(c1ccccc1)C2` (racemic), for which the IC50 with L6 (Rattus norvegicus, L6) was 28500 nM; in data set [1] (Trypanosoma brucei, STIB900), 980 nM; in the data set with Plasmodium falciparum (Plasmodium falciparum, K1) it was 170 nM.

Turning to `CCN(CC)CCC(=O)OC1CC2(N(C)C)CC(c3ccccc3)C1C(c1ccccc1)C2` (racemic), the half-maximal inhibitory concentration (IC50) in the data set with L6 (Rattus norvegicus, L6) was 23600 nM; in data set [1] (Trypanosoma brucei, STIB900) it was 110 nM; with Plasmodium falciparum (Plasmodium falciparum, K1) it was 430 nM.

As to `O=C(CCN1CCC(O)CC1)OC1CC2(N3CCCC3)CC(c3ccccc3)C1C(c1ccccc1)C2` (racemic), the IC50 with L6 (Rattus norvegicus, L6) is 35600 nM; in data set [1] (Trypanosoma brucei, STIB900), 1430 nM; in the data set on Plasmodium falciparum (Plasmodium falciparum, K1) it was 1910 nM.

`O=C(CN1CCC(O)CC1)OC1CC2(N3CCCCC3)CC(c3ccccc3)C1C(c1ccccc1)C2` (racemic): the IC50 was above 179000 nM in the data set on L6 (Rattus norvegicus, L6) and 3810 nM in data set [1] (Trypanosoma brucei, STIB900).

In the case of `O=C(CCN1CCCCC1)OC1CC2(N3CCCCC3)CC(c3ccccc3)C1C(c1ccccc1)C2` (racemic), the IC50 in the data set on L6 (Rattus norvegicus, L6) is 54600 nM; in data set [1] (Trypanosoma brucei, STIB900), 910 nM; in the data set with Plasmodium falciparum (Plasmodium falciparum, K1) it was 260 nM.

In the case of `O=C(CN1CCCC1)OC1CC2(N3CCCCC3)CC(c3ccccc3)C1C(c1ccccc1)C2` (racemic), the IC50 in the data set on L6 (l6) came to 52000 nM; in data set [1] it was 880 nM; in the data set with Plasmodium falciparum, 740 nM.

In the case of `CCN(CC)CC(=O)OC1CC2(N3CCCCC3)CC(c3ccccc3)C1C(c1ccccc1)C2` (racemic), the IC50 was 61300 nM in the data set on L6 (l6), 1530 nM in data set [1] and 770 nM in the data set on Plasmodium falciparum.

In the case of `CN(C)C12CC(OC(=O)CN3CCC(O)CC3)C(C(c3ccccc3)C1)C(c1ccccc1)C2` (racemic), the IC50 was 102000 nM with L6 (Rattus norvegicus, L6); 2060 nM in data set [1] (Trypanosoma brucei, STIB900); 2160 nM in the data set on Plasmodium falciparum (Plasmodium falciparum, K1).

`CCN(CC)CCC(=O)OC1CC2(N3CCCC3)CC(c3ccccc3)C1C(c1ccccc1)C2` (racemic): the IC50 with L6 (Rattus norvegicus, L6) worked out at 19200 nM; in data set [1] (Trypanosoma brucei, STIB900), 110 nM; with Plasmodium falciparum (Plasmodium falciparum, K1), 300 nM.
